Source: US20250283871A1, “COMPOSITIONS AND METHODS FOR MODULATING THE INTERACTION BETWEEN SS18-SSX FUSION ONCOPROTEIN AND NUCLEOSOMES” (Dana-Farber Cancer Institute, Inc., priority 2020, published 2025)
“And” between values parts separate entries of the source, which are not always exact repeats. Equal entries are not always repeated.

How the values were obtained:
[1] = system: mammalian mononucleosomes from HEK293T cells; test: Protein and peptide pull downs with mammalian mononucleosomes; type: binding, human; conditions: for nucleosome binding in pull-down: mammalian mononucleosomes
Method: (§1) The flow through was removed, the immobilized bait was incubated with 1-2 μg of purified mammalian mono-nucleosomes from HEK293T cells, recombinant mono-nucleosomes (EpiCypher, 16-0006), recombinant H2AK119Ub mono-nucleosomes (EpiCypher, 16-0020) or recombinant protein for 3 hours at 4° C., and the beads were washed 3× with EB150 buffer and then eluted in 2×LDS with 200 mM DTT with heating at 95° C. for 5 minutes. The pull downs were then visualized by immunoblot analysis or colloidal blue staining.
Mammalian mononucleosomes were purified from HEK293T cells similar to as previously described (Mashtalir et al. (2014) Mol. Cell 54:392-406). Cells were scraped from plates, washed with cold PBS, and centrifuged at 5,000 rpm for 5 min at 4° C. Pellets were resuspended in hypotonic buffer (EBO: 50 mM Tris HCl, pH 7.5, 1 mM EDTA, 1 mM MgCl2, 0.1% NP40 supplemented with 1 mM DTT, 1 mM PMSF, and protease inhibitor cocktail (Roche, C756U27) and incubated for 5 min on ice. The suspension was centrifuged at 5,000 rpm for 5 min at 4° C., and pellets were resuspended in 5 volumes of EB420 (EBO: 50 mM Tris HCl, pH 7.5, 420 mM NaCl, 1 mM MgCl2, 0.1% NP40 with supplemented with 1 mM DTT and 1 mM PMSF containing protease inhibitor cocktail (Roche, C756U27). Homogenate incubated on rotator for 1 hour at 4° C. The supernatant was then centrifuged at 20,000 rpm (30,000×g) for 1 hour at 4° C. using a SW32Ti rotor. Supernatant was then discarded and chromatin pellet was washed in MNAse buffer (20 mM Tris-HCl pH 7.5, 100 mM KCl, 2 mM MgCl2, 1 mM CaCl2, […] sucrose, 0.1% NP-40, and protease inhibitor cocktail) three times. Following MNase treatment (3 U/mL for 30 min at room temperature, Sigma-Aldrich), the reaction was quenched with 5 mM of EGTA and 5 mM of EDTA. The samples were then centrifuged at 20,000×g for 1 hour at 4° C. to obtain the soluble chromatin fraction. Soluble chromatin fraction was loaded onto 10-30% glycerol gradient (Mashtalir et al. (2014) Mol. Cell 54:392-406) and fractions containing mononucleosomes were isolated and concentrated using centrifugal filter (Amicon, EMD Millipore).

[2] = system: recombinant H2AK119Ub mono-nucleosomes; test: Pull downs with WT or H2A K119Ub nucleosomes; type: binding
Method: as §1

[3] = system: acidic patch mutant nucleosomes (D90N, E92K, and E113K); test: GST-SSX pull down with acidic patch mutant nucleosomes; type: binding; conditions: H2A D90N, H3 immunoblot
Method: as §1

[4] = system: WT, H2AUb or H2BUb nucleosomes; test: AlphaLisa binding assay with biotinylated nucleosomes; conditions: 10 nM biotinylated nucleosomes
[5] = system: SYO-1 SS cells; test: Cell proliferation assay; type: cell-based, human; conditions: SYO-1, rescue with variant
Method: To measure cell proliferation following lentiviral infection, 2.5×10^4 cells per well were seeded in 12-well plates following 48-hour exposure to lentivirus and 5-day selection with puromycin or blasticidin, with Day 7 denoting the day cells were plated after infection and selection. The cell viability in three wells was then measured using a Vi-CELL™ Cell Counter (Beckman, Brea, CA) every 72 hours.

[6] = system: Barr bodies (inactive X); test: Immunofluorescence, Barr body localization; type: cell-based, human; conditions: immunofluorescence
Method: Immunofluorescent images were obtained as previously described (Daou et al. (2011) Pro. Nat. Acad. Sci. U.S.A 108:2747-2752). Following lentiviral infection and/or drug treatment, cells were prepared by fixation in 3% PFA-PBS and then were permeabilized with PBS 0.1% NP40. Following incubation with primary antibodies, the Anti-rabbit Alexa Fluor® 594 and Anti-mouse Alexa Fluor® 488 (Life Technologies) secondary antibodies were used for visualization. Staining with 4′,6-diamidino-2-phenylindole (DAPI) was used to visualize nuclei. Images were acquired using Zeiss Axio Imager Z2 microscope and images were processed using ImageJ program (NIH).

[7] = molecular target: T1, mammalian mononucleosomes from HEK-293T cells (Homo sapiens, UniProt P0C0S5); test: Quantitative targeted mass spectrometry of histone marks on MBP-SSX1 78aa-bound nucleosomes (Tables 6A-6C); type: binding; conditions: SSX1 pulldown, HEK293T nucleosomes; parent peptide H2A.Z; normalized to histone norm peptide, log2
T1 construct: endogenous in cells; host or cells: HEK293T (chromatin digested with MNase, glycerol gradient)
Method: (§2) Mammalian mono-nucleosomes purified from MBP-SSX1 78aa pull downs along with representative input samples were prepared and analyzed by the targeted mass spectrometry pipeline described previously (Creech et al. (2015) Methods 72:57-64). Briefly, samples were prepared by histone extraction by acid precipitation followed by protein digestion from incubation with trypsin. To these prepared samples, synthesized isotopically labeled peptides of histone tails with numerous modifications were added at a known quantity. Each sample was then separated using a Proxeon EASY-nLC™ 1000 UHPLC system (Thermo Scientific) and detected with a Q Exactive™ mass spectrometer (Thermo Scientific). The fold change in abundance of each histone peptide from the input sample compared to the pull down was calculated from the light:heavy ratio in detected peak size.

[8] = system: mammalian mononucleosomes from HEK-293T cells; test: as above; type: binding, human; conditions: SSX1 pulldown
Method: as §2

[9] = molecular target: T2, mammalian mononucleosomes from HEK-293T cells (Homo sapiens, UniProt P62805); test: as above; type: binding; conditions: SSX1 pulldown, parent peptide H4K20
T2 construct: endogenous in cells; host or cells: HEK293T (chromatin digested with MNase, glycerol gradient)
Method: as §2

[10] = molecular target: mononucleosomes (Homo sapiens, UniProt O60814+P04908); test: Peptide competition experiments; type: binding; conditions: SSX 34aa versus SMARCB1 aa351-385
[11] = system: IMR90 fibroblasts; test: Peptide hybridization assay; type: cell-based; conditions: methanol-fixed IMR90 fibroblasts, co-stain H2A K119Ub
Method: IMR90 fibroblasts were grown on coverslips, washed with PBS and fixed using 100% ice-cold methanol for 3 minutes. Coverslips were then washed with IF wash buffer (PBS 0.1% NP40 1 mM Sodium azide) 3 times. Selected groups were treated with 200 ng/ml of recombinant USP2 catalytic domain (Boston biochem) for 1 hour. Coverslips were then washed 3 times with IF wash buffer and incubated with 2 μM of biotinylated peptides. Coverslips were subsequently washed 3 times with IF wash buffer and fixed in 3% PFA-PBS for 20 minutes. The rest of the procedure followed accordingly to standard IF protocol. In brief, following incubation with primary antibodies, the Anti-rabit Alexa Fluor® 594 and Streptavidin Alexa Fluor® 488 (Life Technologies) secondary antibodies/reagent were used for visualization of primary antibodies or biotinylated peptides. Staining with 4′,6-diamidino-2-phenylindole (DAPI) was used to visualize nuclei. Images were acquired using Zeiss Axio Imager Z2 microscope and images were processed using ImageJ program (NIH).

[12] = system: nucleosome acidic patch; test: Detection of nucleosome acidic patch interactions by photocrosslinking; type: binding; conditions: diazirine probes in nucleosome acidic patch
Method: Briefly, diazirine-containing recombinant nucleosomes (0.5 uM) were incubated with biotinylated SSX peptides (12.5 uM) in binding buffer (20 mM HEPES, pH 7.9, 4 mM Tris, pH 7.5, 150 mM KCl, 10 mM MgCl2, 10% glycerol, and 0.02% (v/v) IGEPAL CA-630) at 30° C. for 30 mins, and cooled on ice for 5 mins. The reaction mixtures were then irradiated at 365 nm for 10 minutes. Reactions were then analyzed by western blotting employing IRDye® 800CW streptavidin on a LI-COR Odyssey® Infrared Imager. Additional details are found in Dao et al. (2019) Nat.

[13] = HEK293T nucleosomes, parent peptide H2AK5K9, normalized to histone norm peptide, log2
[14] = HEK293T nucleosomes, parent peptide H2AK13K15, normalized to histone norm peptide, log2
[15] = HEK293T nucleosomes, parent peptide H2B, normalized to histone norm peptide, log2
[16] = HEK293T nucleosomes, parent peptide H3K4, normalized to histone norm peptide, log2
[17] = HEK293T nucleosomes, parent peptide H3K9K14, normalized to histone norm peptide, log2
[18] = HEK293T, parent peptide H2AK5K9
[19] = HEK293T, parent peptide H3K9K14
[20] = HEK293T nucleosomes, normalized to histone norm peptide, log2

T1 sequence (P0C0S5 whole entry): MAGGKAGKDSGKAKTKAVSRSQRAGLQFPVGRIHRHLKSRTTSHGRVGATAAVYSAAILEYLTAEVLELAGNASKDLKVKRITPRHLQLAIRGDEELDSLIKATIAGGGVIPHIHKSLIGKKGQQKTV

GST-SSX 78aa: GST-tagged recombinant C-terminal 78 residues of SSX1 (aa 111-188)
nucleosome binding in pull-down [1]: sufficient for its nucleosomal interactions
binding to mammalian versus recombinant, unmodified nucleosomes ([1]; pull-down): stronger than binding to recombinant, unmodified nucleosomes
affinity to H2A K119Ub-decorated nucleosomes, pulldown ([2]; H3 immunoblot): significantly higher affinity to H2A K119Ub-decorated nucleosomes relative to unmodified nucleosomes or H2B K120Ub nucleosomes
binding across differentially-marked recombinant and mammalian nucleosomes ([2]; screen of modified mononucleosomes): preferentially bound to H2A K119Ub and mammalian nucleosomes over unmodified nucleosomes or nucleosomes with other histone marks
binding to acidic patch-mutant nucleosomes [3]: near complete loss of SSX binding
affinity to H2A K119Ub-decorated nucleosomes, AlphaLisa [4]: significantly higher affinity to H2A K119Ub-decorated nucleosomes relative to unmodified nucleosomes or H2B K120Ub nucleosomes

SS18-SSX: SS18 aa 1-379 fused to the C-terminal 78 aa of SSX1 (SEQ ID NO: 225)
proliferation of SS cells with shSSX knockdown of endogenous SS18-SSX [5]: rescued proliferation
localization / recruitment to Barr bodies [6]: strong colocalization

SSX1
log2norm (Light/Heavy) intensity ratio of H2AZ(1to19)K4ac1 [7]: −0.217 and 0.048
log2norm (Light/Heavy) intensity ratio of H2AZ(1to19)ac0 [7]: −0.784 and −0.697
log2norm (Light/Heavy) intensity ratio of H2A(4to11)K5ac1 [8, 13]: 0.569 and 0.624
log2norm (Light/Heavy) intensity ratio of H2A(4to11)K5ac1K9ac1 [8, 13]: −0.031 and −0.049
log2norm (Light/Heavy) intensity ratio of H2A(4to11)K9ac1 [8, 13]: −0.254 and −0.375
log2norm (Light/Heavy) intensity ratio of H2A(4to11)ac0 [8, 13]: −0.026 and 0.061
log2norm (Light/Heavy) intensity ratio of H2A(12to17)K13ac1 [8, 14]: 0.032 and −0.047
log2norm (Light/Heavy) intensity ratio of H2A(12to17)K15ac1 [8, 14]: 0.042 and −0.086
log2norm (Light/Heavy) intensity ratio of H2B(1to29)K5ac1 [8, 15]: 0.273 and 0.323
log2norm (Light/Heavy) intensity ratio of H2B(1to29)ac0 [8, 15]: 0.152 and 0.160
log2norm (Light/Heavy) intensity ratio of H3K4ac1 [8, 16]: 0.263 and 0.320
log2norm (Light/Heavy) intensity ratio of H3K4me0 [8, 16]: 0.549 and 0.339
log2norm (Light/Heavy) intensity ratio of H3K4me2 [8, 16]: 0.778 and 0.532
log2norm (Light/Heavy) intensity ratio of H3K4me3 [8, 16]: 0.766 and 0.505
log2norm (Light/Heavy) intensity ratio of H3K9me1S10ph1K14ac1 [8, 17]: −2.668 and −2.507
log2norm (Light/Heavy) intensity ratio of H3K9me2S10ph1K14ac1 [8, 17]: −0.870 and −1.009
log2norm (Light/Heavy) intensity ratio of H3K79me2 ([8]; HEK293T nucleosomes, parent peptide H3K79, normalized to histone norm peptide, log2): 0.826 and 0.557
H2A(4to11)K5ac1K9ac1 norm to ctrl avg [8, 18]: 0.050 and 0.032
H2A(4to11)K9ac1 norm to ctrl avg [8, 18]: 0.404 and 0.283
H2A(12to17)K13ac1 norm to ctrl avg ([8]; HEK293T, parent peptide H2AK13K15): 0.266 and 0.188
H2B(1to29)K5ac1 norm to ctrl avg ([8]; HEK293T, parent peptide H2B): 0.154 and 0.203
H2B(1to29)ac0 norm to ctrl avg ([8]; HEK293T, parent peptide H2B): 0.191 and 0.199
H3K4me0 norm to ctrl avg ([8]; HEK293T, parent peptide H3K4): 0.514 and 0.304
H3K9me1S10ph1K14ac1 norm to ctrl avg [8, 19]: 0.290 and 0.451
H3K9me2S10ph1K14ac0 norm to ctrl avg [8, 19]: 1.301 and 0.892
H3K9me2S10ph1K14ac1 norm to ctrl avg [8, 19]: 1.152 and 1.012
log2norm (Light/Heavy) intensity ratio of H4(20to23)K20me0 [9, 20]: 0.017 and 0.092
log2norm (Light/Heavy) intensity ratio of H4(20to23)K20me1 [9, 20]: −0.427 and −0.443
log2norm (Light/Heavy) intensity ratio of H4(20to23)K20me2 [9, 20]: −0.414 and −0.391
log2norm (Light/Heavy) intensity ratio of H4(20to23)K20me3 [9, 20]: −0.109 and 0.055
H4(20to23)K20me1 norm to ctrl avg ([9]; HEK293T): 0.211 and 0.195
H4(20to23)K20me2 norm to ctrl avg ([9]; HEK293T): 0.024 and 0.047

SMARCB1 C-term alpha helix: peptide of the SMARCB1 C-terminal alpha helical domain, aa 351-385
reciprocal competition for nucleosome acidic patch binding [10]: unable to outcompete SSX from binding the nucleosomes

SSX aa155-188: N-terminally biotinylated peptide of the conserved 34aa region of SSX
nucleosome binding in pull-down [1]: sufficient for SSX nucleosome binding
labeling of Barr bodies by biotinylated peptide [11]: Clear labeling of Barr bodies
histone-SSX crosslinks across the acidic patch [12]: most prominently at positions H2A E56 and H2B E113
